What was measured:
EPHA7 = target: T1, EPHA7 (Homo sapiens, UniProt Q15375); test: Millipore kinase panel; format: biochemical; settings: read-out: % Control
T1 construct: purchased Millipore KinaseProfiler (kinases); Cerep (receptors and ion channels)

LIMK1 = target: T2, LIMK1 (Homo sapiens, UniProt P53667); test: Millipore kinase panel; format: biochemical; settings: read-out: % Control
T2 construct: purchased Millipore KinaseProfiler (kinases); Cerep (receptors and ion channels)

AURKB = target: T3, AURKB (Homo sapiens, UniProt Q96GD4); test: Millipore kinase panel; format: biochemical; settings: read-out: % Control
T3 construct: purchased Millipore KinaseProfiler (kinases); Cerep (receptors and ion channels)

MEK1 = target: T4, MEK1 (Homo sapiens, UniProt Q02750); test: Millipore kinase panel; format: biochemical; settings: read-out: % Control
T4 construct: purchased Millipore KinaseProfiler (kinases); Cerep (receptors and ion channels)

EPHB2 = target: T5, EPHB2 (Homo sapiens, UniProt P29323); test: Millipore kinase panel; format: biochemical; settings: read-out: % Control
T5 construct: purchased Millipore KinaseProfiler (kinases); Cerep (receptors and ion channels)

CK2 = target: T6, CK2 (Homo sapiens, UniProt P68400); test: Millipore kinase panel; format: biochemical; settings: read-out: % Control
T6 construct: purchased Millipore KinaseProfiler (kinases); Cerep (receptors and ion channels)

PDGFRALPHA = target: T7, PDGFRALPHA (Homo sapiens, UniProt P16234); test: Millipore kinase panel; format: biochemical; settings: read-out: % Control
T7 construct: purchased Millipore KinaseProfiler (kinases); Cerep (receptors and ion channels)

STK33 = target: T8, STK33 (Homo sapiens, UniProt Q9BYT3); test: Millipore kinase panel; format: biochemical; settings: read-out: % Control
T8 construct: purchased Millipore KinaseProfiler (kinases); Cerep (receptors and ion channels)

IRR = target: T9, IRR (Homo sapiens, UniProt P14616); test: Millipore kinase panel; format: biochemical; settings: read-out: % Control
T9 construct: purchased Millipore KinaseProfiler (kinases); Cerep (receptors and ion channels)

PRAK = target: T10, PRAK (Homo sapiens, UniProt Q8IW41); test: Millipore kinase panel; format: biochemical; settings: read-out: % Control
T10 construct: purchased Millipore KinaseProfiler (kinases); Cerep (receptors and ion channels)

KV channel = test: CEREP binding panel; settings: 10 μM, antagonist radioligand
JNK3 = target: T11, JNK3 (Homo sapiens, UniProt P53779); test: Millipore kinase panel; format: biochemical; settings: read-out: % Control
T11 construct: purchased Millipore KinaseProfiler (kinases); Cerep (receptors and ion channels)

PTK5 = target: T12, PTK5 (Homo sapiens, UniProt P42685); test: Millipore kinase panel; format: biochemical; settings: read-out: % Control
T12 construct: purchased Millipore KinaseProfiler (kinases); Cerep (receptors and ion channels)

NEK6 = target: T13, NEK6 (Homo sapiens, UniProt Q9HC98); test: Millipore kinase panel; format: biochemical; settings: read-out: % Control
T13 construct: purchased Millipore KinaseProfiler (kinases); Cerep (receptors and ion channels)

D2S (h) = target: T14, D2S (h) (Homo sapiens, UniProt P14416); test: CEREP binding panel; settings: antagonist radioligand, read-out: % Inhibition of Control Specific Binding
T14 construct: purchased Millipore KinaseProfiler (kinases); Cerep (receptors and ion channels)

ALK4 = target: T15, ALK4 (Homo sapiens, UniProt P36896); test: Millipore kinase panel; format: biochemical; settings: read-out: % Control
T15 construct: purchased Millipore KinaseProfiler (kinases); Cerep (receptors and ion channels)

MLK1 = target: T16, MLK1 (Homo sapiens, UniProt P80192); test: Millipore kinase panel; format: biochemical; settings: read-out: % Control
T16 construct: purchased Millipore KinaseProfiler (kinases); Cerep (receptors and ion channels)

JNK2ALPHA2 = target: T17, JNK2ALPHA2 (Homo sapiens, UniProt P45984); test: Millipore kinase panel; format: biochemical; settings: read-out: % Control
T17 construct: purchased Millipore KinaseProfiler (kinases); Cerep (receptors and ion channels)

5-HT1A (h) = target: T18, 5-HT1A (h) (Homo sapiens, UniProt P08908); test: CEREP binding panel; settings: agonist radioligand, read-out: % Inhibition of Control Specific Binding
T18 construct: purchased Millipore KinaseProfiler (kinases); Cerep (receptors and ion channels)

BRSK1 = target: T19, BRSK1 (Homo sapiens, UniProt Q8TDC3); test: Millipore kinase panel; format: biochemical; settings: read-out: % Control
T19 construct: purchased Millipore KinaseProfiler (kinases); Cerep (receptors and ion channels)

NTS1 (NT1) (h) = target: T20, NTS1 (NT1) (h) (Homo sapiens, UniProt P30989); test: CEREP binding panel; settings: agonist radioligand, read-out: % Inhibition of Control Specific Binding
T20 construct: purchased Millipore KinaseProfiler (kinases); Cerep (receptors and ion channels)

YES = target: T21, YES (Homo sapiens, UniProt P07947); test: Millipore kinase panel; format: biochemical; settings: read-out: % Control
T21 construct: purchased Millipore KinaseProfiler (kinases); Cerep (receptors and ion channels)

CDK7/CYCLINH/MAT1 = target: T22, CDK7/CYCLINH/MAT1 (Homo sapiens, UniProt P50613); test: Millipore kinase panel; format: biochemical; settings: read-out: % Control
T22 construct: purchased Millipore KinaseProfiler (kinases); Cerep (receptors and ion channels)

JAK2 = target: T23, JAK2 (Homo sapiens, UniProt O60674); test: Millipore kinase panel; format: biochemical; settings: read-out: % Control
T23 construct: purchased Millipore KinaseProfiler (kinases); Cerep (receptors and ion channels)

RIPK2 = target: T24, RIPK2 (Homo sapiens, UniProt O43353); test: Millipore kinase panel; format: biochemical; settings: read-out: % Control
T24 construct: purchased Millipore KinaseProfiler (kinases); Cerep (receptors and ion channels)

EPHA1 = target: T25, EPHA1 (Homo sapiens, UniProt P21709); test: Millipore kinase panel; format: biochemical; settings: read-out: % Control
T25 construct: purchased Millipore KinaseProfiler (kinases); Cerep (receptors and ion channels)

BMX = target: T26, BMX (Homo sapiens, UniProt P51813); test: Millipore kinase panel; format: biochemical; settings: read-out: % Control
T26 construct: purchased Millipore KinaseProfiler (kinases); Cerep (receptors and ion channels)

CKIT = target: T27, CKIT (Homo sapiens, UniProt P10721); test: Millipore kinase panel; format: biochemical; settings: read-out: % Control
T27 construct: purchased Millipore KinaseProfiler (kinases); Cerep (receptors and ion channels)

DAPK1 = target: T28, DAPK1 (Homo sapiens, UniProt P53355); test: Millipore kinase panel; format: biochemical; settings: read-out: % Control
T28 construct: purchased Millipore KinaseProfiler (kinases); Cerep (receptors and ion channels)

DYRK2 = target: T29, DYRK2 (Homo sapiens, UniProt Q92630); test: Millipore kinase panel; format: biochemical; settings: read-out: % Control
T29 construct: purchased Millipore KinaseProfiler (kinases); Cerep (receptors and ion channels)

SRPK1 = target: T30, SRPK1 (Homo sapiens, UniProt Q96SB4); test: Millipore kinase panel; format: biochemical; settings: read-out: % Control
T30 construct: purchased Millipore KinaseProfiler (kinases); Cerep (receptors and ion channels)

M1 (h) = target: T31, M1 (h) (Homo sapiens, UniProt P11229); test: CEREP binding panel; settings: antagonist radioligand, read-out: % Inhibition of Control Specific Binding
T31 construct: purchased Millipore KinaseProfiler (kinases); Cerep (receptors and ion channels)

FAK = target: T32, FAK (Homo sapiens, UniProt Q05397); test: Millipore kinase panel; format: biochemical; settings: read-out: % Control
T32 construct: purchased Millipore KinaseProfiler (kinases); Cerep (receptors and ion channels)

MTOR = target: T33, MTOR (Homo sapiens, UniProt P42345); test: Millipore kinase panel; format: biochemical; settings: read-out: % Control
T33 construct: purchased Millipore KinaseProfiler (kinases); Cerep (receptors and ion channels)

[1] = Caco-2 Papp determination; format: in vitro ADME, human
PI3 KINASE (P110A/P85A) = test: Millipore kinase panel; format: biochemical; settings: 1 μM, ATP at Km
CSK = target: T34, CSK (Homo sapiens, UniProt P41240); test: Millipore kinase panel; format: biochemical; settings: read-out: % Control
T34 construct: purchased Millipore KinaseProfiler (kinases); Cerep (receptors and ion channels)

FES = target: T35, FES (Homo sapiens, UniProt P07332); test: Millipore kinase panel; format: biochemical; settings: read-out: % Control
T35 construct: purchased Millipore KinaseProfiler (kinases); Cerep (receptors and ion channels)

TSSK1 = target: T36, TSSK1 (Homo sapiens, UniProt Q9BXA7); test: Millipore kinase panel; format: biochemical; settings: read-out: % Control
T36 construct: purchased Millipore KinaseProfiler (kinases); Cerep (receptors and ion channels)

MAPKAP-K2 = target: T37, MAPKAP-K2 (Homo sapiens, UniProt P49137); test: Millipore kinase panel; format: biochemical; settings: read-out: % Control
T37 construct: purchased Millipore KinaseProfiler (kinases); Cerep (receptors and ion channels)

FGR = target: T38, FGR (Homo sapiens, UniProt P09769); test: Millipore kinase panel; format: biochemical; settings: read-out: % Control
T38 construct: purchased Millipore KinaseProfiler (kinases); Cerep (receptors and ion channels)

SGK = target: T39, SGK (Homo sapiens, UniProt O00141); test: Millipore kinase panel; format: biochemical; settings: read-out: % Control
T39 construct: purchased Millipore KinaseProfiler (kinases); Cerep (receptors and ion channels)

Y1 (h) = target: T40, Y1 (h) (Homo sapiens, UniProt P25929); test: CEREP binding panel; settings: agonist radioligand, read-out: % Inhibition of Control Specific Binding
T40 construct: purchased Millipore KinaseProfiler (kinases); Cerep (receptors and ion channels)

CCR1 (h) = target: T41, CCR1 (h) (Homo sapiens, UniProt P32246); test: CEREP binding panel; settings: agonist radioligand, read-out: % Inhibition of Control Specific Binding
T41 construct: purchased Millipore KinaseProfiler (kinases); Cerep (receptors and ion channels)

T25 sequence (P21709 26-976): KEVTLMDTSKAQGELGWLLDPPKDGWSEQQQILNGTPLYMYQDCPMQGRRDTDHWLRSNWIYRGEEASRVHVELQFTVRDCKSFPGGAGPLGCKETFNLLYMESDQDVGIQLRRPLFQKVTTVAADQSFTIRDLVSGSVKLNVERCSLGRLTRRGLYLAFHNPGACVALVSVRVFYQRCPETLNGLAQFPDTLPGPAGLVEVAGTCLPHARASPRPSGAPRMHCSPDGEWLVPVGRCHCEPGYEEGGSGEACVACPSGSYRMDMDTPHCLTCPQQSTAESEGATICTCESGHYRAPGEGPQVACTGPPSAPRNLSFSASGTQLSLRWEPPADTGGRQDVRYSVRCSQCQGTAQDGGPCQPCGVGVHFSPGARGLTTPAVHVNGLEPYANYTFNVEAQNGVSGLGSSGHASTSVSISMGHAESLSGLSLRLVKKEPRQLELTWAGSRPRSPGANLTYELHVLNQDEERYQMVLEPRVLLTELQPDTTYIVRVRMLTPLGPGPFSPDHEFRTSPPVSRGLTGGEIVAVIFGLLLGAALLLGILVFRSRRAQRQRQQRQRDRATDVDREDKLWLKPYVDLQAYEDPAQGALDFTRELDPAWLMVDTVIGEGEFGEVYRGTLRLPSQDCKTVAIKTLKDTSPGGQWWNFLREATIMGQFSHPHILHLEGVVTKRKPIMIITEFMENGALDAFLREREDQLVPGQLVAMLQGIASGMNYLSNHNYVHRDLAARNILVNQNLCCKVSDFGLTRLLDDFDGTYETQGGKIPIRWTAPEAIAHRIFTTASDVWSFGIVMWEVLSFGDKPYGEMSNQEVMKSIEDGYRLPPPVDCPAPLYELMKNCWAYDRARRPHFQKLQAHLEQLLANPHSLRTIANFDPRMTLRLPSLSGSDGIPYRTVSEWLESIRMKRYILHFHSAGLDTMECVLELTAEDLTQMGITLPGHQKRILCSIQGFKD
T13 sequence (Q9HC98 whole entry): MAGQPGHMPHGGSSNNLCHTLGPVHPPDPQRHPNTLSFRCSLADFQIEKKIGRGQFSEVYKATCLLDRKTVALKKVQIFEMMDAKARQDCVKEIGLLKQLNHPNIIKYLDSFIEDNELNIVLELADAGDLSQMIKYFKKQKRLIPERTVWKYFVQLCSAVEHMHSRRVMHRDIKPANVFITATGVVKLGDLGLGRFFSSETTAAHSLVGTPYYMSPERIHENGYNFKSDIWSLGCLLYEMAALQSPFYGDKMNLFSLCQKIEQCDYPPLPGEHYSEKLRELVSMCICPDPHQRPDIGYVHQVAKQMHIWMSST
T20 sequence (P30989 whole entry): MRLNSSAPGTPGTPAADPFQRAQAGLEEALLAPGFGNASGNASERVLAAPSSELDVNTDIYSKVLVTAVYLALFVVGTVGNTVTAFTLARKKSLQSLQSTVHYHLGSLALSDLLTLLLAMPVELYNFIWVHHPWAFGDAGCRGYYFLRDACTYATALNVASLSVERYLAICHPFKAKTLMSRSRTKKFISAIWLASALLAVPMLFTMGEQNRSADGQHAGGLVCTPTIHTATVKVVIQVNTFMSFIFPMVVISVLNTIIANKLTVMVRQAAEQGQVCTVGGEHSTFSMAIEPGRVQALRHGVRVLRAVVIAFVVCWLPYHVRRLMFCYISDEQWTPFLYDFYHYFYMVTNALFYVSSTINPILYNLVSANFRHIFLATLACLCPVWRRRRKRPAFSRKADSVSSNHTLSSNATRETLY
T24 sequence (O43353 whole entry): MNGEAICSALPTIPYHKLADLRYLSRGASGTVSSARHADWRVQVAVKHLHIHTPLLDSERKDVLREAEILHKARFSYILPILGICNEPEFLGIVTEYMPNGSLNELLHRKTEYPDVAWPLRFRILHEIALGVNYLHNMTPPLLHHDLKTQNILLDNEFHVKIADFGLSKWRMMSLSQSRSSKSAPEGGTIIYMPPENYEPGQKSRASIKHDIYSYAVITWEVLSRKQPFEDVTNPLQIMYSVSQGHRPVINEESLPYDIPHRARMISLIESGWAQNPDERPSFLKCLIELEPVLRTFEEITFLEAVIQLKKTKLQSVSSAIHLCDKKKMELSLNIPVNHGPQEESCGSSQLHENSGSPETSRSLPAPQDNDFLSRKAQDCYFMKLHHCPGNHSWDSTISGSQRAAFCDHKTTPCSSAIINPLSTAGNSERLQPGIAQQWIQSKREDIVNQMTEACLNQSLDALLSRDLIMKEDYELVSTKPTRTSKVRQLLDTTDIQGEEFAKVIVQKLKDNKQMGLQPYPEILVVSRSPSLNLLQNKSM
T16 sequence (P80192 whole entry): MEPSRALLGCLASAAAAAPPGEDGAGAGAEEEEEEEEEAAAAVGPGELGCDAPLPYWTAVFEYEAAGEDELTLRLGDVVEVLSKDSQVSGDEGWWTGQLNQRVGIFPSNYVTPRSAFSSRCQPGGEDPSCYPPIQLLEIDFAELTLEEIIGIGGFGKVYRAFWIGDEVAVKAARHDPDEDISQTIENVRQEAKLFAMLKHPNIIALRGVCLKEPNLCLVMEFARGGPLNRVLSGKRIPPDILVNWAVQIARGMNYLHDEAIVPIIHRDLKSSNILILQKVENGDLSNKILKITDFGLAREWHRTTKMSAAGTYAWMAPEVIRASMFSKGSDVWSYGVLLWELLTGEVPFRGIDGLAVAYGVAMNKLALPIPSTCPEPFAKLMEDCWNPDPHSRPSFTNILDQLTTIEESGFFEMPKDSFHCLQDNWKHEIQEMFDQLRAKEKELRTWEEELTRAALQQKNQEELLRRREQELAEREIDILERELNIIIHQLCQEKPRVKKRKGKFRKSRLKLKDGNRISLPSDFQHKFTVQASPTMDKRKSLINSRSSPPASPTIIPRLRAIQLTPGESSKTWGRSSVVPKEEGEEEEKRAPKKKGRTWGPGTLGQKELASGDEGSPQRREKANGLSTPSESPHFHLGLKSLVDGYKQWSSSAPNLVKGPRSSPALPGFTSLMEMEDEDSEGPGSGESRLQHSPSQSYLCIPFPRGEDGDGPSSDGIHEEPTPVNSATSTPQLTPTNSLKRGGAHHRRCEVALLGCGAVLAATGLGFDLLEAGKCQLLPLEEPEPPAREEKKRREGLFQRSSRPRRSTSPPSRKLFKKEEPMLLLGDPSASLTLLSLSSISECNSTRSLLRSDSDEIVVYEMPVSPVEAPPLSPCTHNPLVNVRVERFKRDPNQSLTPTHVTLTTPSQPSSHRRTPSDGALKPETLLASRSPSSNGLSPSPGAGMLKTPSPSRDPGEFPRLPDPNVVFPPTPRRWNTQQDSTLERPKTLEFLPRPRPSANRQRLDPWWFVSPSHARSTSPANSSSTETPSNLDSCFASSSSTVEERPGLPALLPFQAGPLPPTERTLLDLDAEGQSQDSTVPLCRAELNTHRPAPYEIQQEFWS
T23 sequence (O60674 whole entry): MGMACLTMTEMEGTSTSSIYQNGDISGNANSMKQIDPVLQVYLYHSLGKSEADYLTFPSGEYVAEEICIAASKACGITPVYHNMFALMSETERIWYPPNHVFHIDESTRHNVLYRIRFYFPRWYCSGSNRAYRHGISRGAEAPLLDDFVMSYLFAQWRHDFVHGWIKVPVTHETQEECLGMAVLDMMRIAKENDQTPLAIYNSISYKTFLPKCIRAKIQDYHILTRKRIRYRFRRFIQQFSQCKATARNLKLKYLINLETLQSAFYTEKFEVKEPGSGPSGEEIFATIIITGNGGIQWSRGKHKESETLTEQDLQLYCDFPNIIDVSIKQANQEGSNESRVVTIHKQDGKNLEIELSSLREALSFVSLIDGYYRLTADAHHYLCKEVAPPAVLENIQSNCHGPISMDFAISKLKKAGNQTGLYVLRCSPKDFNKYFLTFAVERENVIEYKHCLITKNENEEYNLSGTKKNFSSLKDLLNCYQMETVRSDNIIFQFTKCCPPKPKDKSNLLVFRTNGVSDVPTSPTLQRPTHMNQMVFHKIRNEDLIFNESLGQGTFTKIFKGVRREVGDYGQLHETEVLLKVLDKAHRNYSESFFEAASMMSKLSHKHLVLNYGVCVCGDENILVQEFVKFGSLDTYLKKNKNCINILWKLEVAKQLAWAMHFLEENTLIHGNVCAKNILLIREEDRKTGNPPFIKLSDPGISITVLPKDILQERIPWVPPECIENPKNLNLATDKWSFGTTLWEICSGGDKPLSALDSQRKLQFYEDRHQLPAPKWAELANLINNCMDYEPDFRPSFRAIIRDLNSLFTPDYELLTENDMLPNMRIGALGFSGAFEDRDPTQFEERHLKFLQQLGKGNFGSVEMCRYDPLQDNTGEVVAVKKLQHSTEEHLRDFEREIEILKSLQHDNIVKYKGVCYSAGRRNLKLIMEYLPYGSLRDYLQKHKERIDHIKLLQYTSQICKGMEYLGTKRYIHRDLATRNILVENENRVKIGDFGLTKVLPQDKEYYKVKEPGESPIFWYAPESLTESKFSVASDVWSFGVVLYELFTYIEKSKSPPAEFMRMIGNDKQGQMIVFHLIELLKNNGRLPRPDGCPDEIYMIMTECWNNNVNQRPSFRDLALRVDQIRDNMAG
T29 sequence (Q92630 whole entry): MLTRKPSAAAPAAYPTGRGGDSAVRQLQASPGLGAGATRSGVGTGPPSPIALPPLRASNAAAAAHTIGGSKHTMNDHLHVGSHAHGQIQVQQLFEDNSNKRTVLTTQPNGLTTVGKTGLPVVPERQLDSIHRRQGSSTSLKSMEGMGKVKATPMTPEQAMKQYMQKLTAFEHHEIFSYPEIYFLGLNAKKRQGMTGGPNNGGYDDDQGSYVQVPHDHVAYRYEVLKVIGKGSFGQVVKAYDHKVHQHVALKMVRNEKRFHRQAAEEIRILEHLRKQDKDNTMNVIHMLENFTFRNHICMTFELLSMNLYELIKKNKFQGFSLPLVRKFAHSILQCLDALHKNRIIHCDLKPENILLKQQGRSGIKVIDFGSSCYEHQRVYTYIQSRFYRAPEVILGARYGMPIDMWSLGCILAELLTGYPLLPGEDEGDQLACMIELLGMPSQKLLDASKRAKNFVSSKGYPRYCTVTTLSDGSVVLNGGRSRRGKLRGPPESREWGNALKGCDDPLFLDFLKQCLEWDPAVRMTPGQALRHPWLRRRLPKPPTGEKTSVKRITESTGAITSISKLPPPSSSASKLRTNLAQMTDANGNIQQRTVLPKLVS

O=C1NCCC12CCN(c1c(Cl)cncc1-c1ccc(N3CCOCC3)cc1)CC2 [Compound 44, 8-(3-Chloro-5-(4-morpholin-4-ylphenyl)pyridin-4-yl)-2,8-diazaspiro[4.5]decan-1-one]
remaining activity at 1 µM (EPHA7): -2%
remaining activity at 1 µM (LIMK1): -3%
remaining activity at 1 µM (AURKB): -1%
remaining activity at 1 µM (MEK1): -3%
remaining activity at 1 µM (EPHB2): -1%
remaining activity at 1 µM (CK2): 12%
remaining activity at 1 µM (PDGFRALPHA): 2%
remaining activity at 1 µM (STK33): 4%
remaining activity at 1 µM (IRR): 1%
remaining activity at 1 µM (PRAK): -8%
% Inhibition of Control Specific Binding (KV channel): 2%
remaining activity at 1 µM (JNK3): 11%
remaining activity at 1 µM (PTK5): 0%
remaining activity at 1 µM (NEK6): -4%
inhibition at 10 µM (D2S (h)): 9%
remaining activity at 1 µM (ALK4): 14%
remaining activity at 1 µM (MLK1): 1%
remaining activity at 1 µM (JNK2ALPHA2): 9%
inhibition at 10 µM (5-HT1A (h)): 11%
remaining activity at 1 µM (BRSK1): 5%
inhibition at 10 µM (NTS1 (NT1) (h)): -4%
remaining activity at 1 µM (YES): -11%
remaining activity at 1 µM (CDK7/CYCLINH/MAT1): -10%
remaining activity at 1 µM (JAK2): 4%
remaining activity at 1 µM (RIPK2): 3%
remaining activity at 1 µM (EPHA1): -2%
remaining activity at 1 µM (BMX): -2%
remaining activity at 1 µM (CKIT): 12%
remaining activity at 1 µM (DAPK1): 0%
remaining activity at 1 µM (DYRK2): 9%
remaining activity at 1 µM (SRPK1): -20%
inhibition at 10 µM (M1 (h)): 12%
remaining activity at 1 µM (FAK): -14%
remaining activity at 1 µM (MTOR): 18%
Caco-2 efflux (efflux ratio, ER) [1]: no efflux
Papp at 2 h, 1 μM ([1]; human, Caco-2, 1 μM, pH 7.4): 37 ×10⁻⁶ cm/s
% Control (PI3 KINASE (P110A/P85A)): 1%
remaining activity at 1 µM (CSK): -1%
remaining activity at 1 µM (FES): 14%
remaining activity at 1 µM (TSSK1): 11%
remaining activity at 1 µM (MAPKAP-K2): 0%
remaining activity at 1 µM (FGR): 16%
remaining activity at 1 µM (SGK): 16%
inhibition at 10 µM (Y1 (h)): -10%
inhibition at 10 µM (CCR1 (h)): 0%

From PMC4767141, “Discovery of Potent, Orally Bioavailable, Small-Molecule Inhibitors of WNT Signaling from a Cell-Based Pathway Screen” (Journal of Medicinal Chemistry, 2015)
